The target of one data set is T1, EZH2 (Homo sapiens, UniProt Q15910).
T1 construct: purchased BPS Biosciences
Put plainly: EZH2 methyltransferase in vitro assay. Format: biochemical. Here is the method: EZH2 assays were performed following BPS Biosciences instructions and as previously described.

The next data set concerns the target p300 (Homo sapiens, UniProt Q09472). Put plainly: HAT in vitro assay, 10-dose IC50, p300. The format is biochemical. To be noted: substrate Histone H3, 3 μM Acetyl-CoA; read-out: Compound IC50 p300.
The subject of a further data set is MePR2B. In words: Cytotoxic effect on mesenchymal progenitor model MePR2B. To be noted: immortalized non-cancer cells. Format: cell-based.
Another data set has as its system U937 cells. In words: U937 leukemia xenograft, human CD45+ cells in bone marrow. Format: in vivo, mice. To be noted: 1 mg/kg i.p., day 16. How it is done: Xenograft studies using NB4 and U937-AML cells were performed in NOG SCID mice under specific pathogen–free conditions. Cells (0.2 × 10^6 in 100 µL) were injected intravenously (retro orbital vein). Injected mice were randomly assigned to receive intra-peritoneal MC2884 (1 mg/kg) or vehicle for two weeks (8 doses) (10 mice per group). All animal procedures were performed in accordance with protocols approved by the local Committee for Animal Experimentation and with the permission of the Italian Health Ministry (n° 626/2015). At 16 days after injection, mice were sacrificed and the femurs and spleens were collected. Bone marrow (BM) and spleen cells were analyzed by FACS. To avoid non-specific stain, cells were mixed with mouse IgG and incubated with indicated antibodies for 30’. The mixture was depleted of erythrocytes and fixed (BD Pharmingen). […] Tumor growth was monitored by weekly bioluminescence imaging (BLI) acquisitions using an IVIS 3D Imaging System (Caliper Alameda, USA). To quantify bioluminescence, the integrated fluxes of photons (photons per s) within each area of interest were determined using the Living Images Software Package 3.2 (Caliper, Alameda, USA). […] Efficacy of drug treatment was assessed as inhibition of BLI emission comparing those MC2884 treated mice group and vehicle groups.
Background: Xenograft models place foreign cells or tissue in a host animal.

Another data set has as its target T2, CYP2C9 (Homo sapiens, UniProt P11712).
T2 construct: from tissue; host or cells: human liver microsomes
In words: Cytochrome P450 inhibition, CYP2C9. Format: in vitro ADME. To be noted: human liver microsomes, probe tolbutamide. How it is done:
This provided a dose of 2 mg free base material/kg when Cytochrome p450 inhibition (5 isoform iC50 administered iv in a 5 mL/kg dosing volume. determination) mouse terminal ip pK study ADME-Tox Cytochrome P450 inhibition of Compound MC2884 was given ip at a dose of 2 mg/kg MC2884 using human liver microsomes as an estimation to a group of 24 normally fed male CD1 mice in a 10 mL/ of in vitro metabolism. kg injection volume. Terminal blood samples (> 230 μL) MC2884 (0.1 μM–25 μM) was incubated with were taken under CO2 from groups of 3 mice at each of 8 human liver microsomes and NADPH in the presence time-points post dose (0.083, 0.25, 0.5, 1, 2, 4, 8 and 24 h) of a cytochrome P450 isoform-specific probe substrate. and placed into heparinized tubes. […]
All samples were stored at −20° C measuring the formation of a fluorescent metabolite. […]
Cyp2C19 inhibition (0.1 mg/mL) and NADPH (1 mM) in the presence of the probe substrate midazolam (2.5 μM) for 5 min at Six test compound samples at concentrations 37° C. […] For the CYP1A incubations, the reactions microsomes (0.5 mg/mL) and NADPH (1 mM) in the were terminated by methanol, and the formation of the presence of the probe substrate mephenytoin (25 μM) metabolite, resorufin, was monitored by fluorescence for 60 min at 37° C. […]
(In general: Microsomes from liver hold many membrane-bound enzymes, among them those of drug oxidation.)

SMILES strings stand for the structures.

A word on the inhibition: it is the relative decrease from the control value, in per cent. The low end stands for a weak effect, the high end for a strong effect. By IC50 is commonly meant the concentration needed to halve the response being measured.

T1 sequence (Q15910 whole entry): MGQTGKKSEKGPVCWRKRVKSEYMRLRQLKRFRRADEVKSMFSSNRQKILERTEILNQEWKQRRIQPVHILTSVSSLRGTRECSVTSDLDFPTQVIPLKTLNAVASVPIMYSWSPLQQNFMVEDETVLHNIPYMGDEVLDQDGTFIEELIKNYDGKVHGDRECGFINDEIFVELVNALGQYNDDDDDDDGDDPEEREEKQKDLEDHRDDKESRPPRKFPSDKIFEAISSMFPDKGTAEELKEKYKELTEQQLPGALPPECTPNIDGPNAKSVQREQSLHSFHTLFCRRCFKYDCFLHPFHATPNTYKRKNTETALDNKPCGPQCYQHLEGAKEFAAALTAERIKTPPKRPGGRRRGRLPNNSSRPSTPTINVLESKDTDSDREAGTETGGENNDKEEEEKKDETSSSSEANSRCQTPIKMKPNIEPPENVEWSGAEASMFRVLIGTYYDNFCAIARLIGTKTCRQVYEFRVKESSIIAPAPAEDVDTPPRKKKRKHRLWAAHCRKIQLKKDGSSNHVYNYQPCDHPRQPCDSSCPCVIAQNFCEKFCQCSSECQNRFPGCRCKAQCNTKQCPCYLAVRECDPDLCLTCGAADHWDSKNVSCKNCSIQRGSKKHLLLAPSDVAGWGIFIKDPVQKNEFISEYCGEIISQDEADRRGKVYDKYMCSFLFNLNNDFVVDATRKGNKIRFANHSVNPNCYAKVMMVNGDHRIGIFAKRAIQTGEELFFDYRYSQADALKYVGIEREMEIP
T1 sequence (O75530 whole entry partner): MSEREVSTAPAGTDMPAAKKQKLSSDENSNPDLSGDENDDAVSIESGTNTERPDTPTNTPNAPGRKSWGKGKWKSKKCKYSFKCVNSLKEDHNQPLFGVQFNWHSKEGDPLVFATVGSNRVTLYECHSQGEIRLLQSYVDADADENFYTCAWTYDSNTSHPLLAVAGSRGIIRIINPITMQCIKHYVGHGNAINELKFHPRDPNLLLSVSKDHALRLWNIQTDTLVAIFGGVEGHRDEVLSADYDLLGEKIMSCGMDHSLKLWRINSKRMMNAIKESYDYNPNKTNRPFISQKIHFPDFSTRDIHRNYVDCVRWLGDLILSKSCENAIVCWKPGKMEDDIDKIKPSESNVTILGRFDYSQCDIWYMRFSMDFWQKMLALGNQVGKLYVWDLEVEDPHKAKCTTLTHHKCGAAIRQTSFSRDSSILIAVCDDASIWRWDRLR
T1 sequence (Q15022 whole entry partner): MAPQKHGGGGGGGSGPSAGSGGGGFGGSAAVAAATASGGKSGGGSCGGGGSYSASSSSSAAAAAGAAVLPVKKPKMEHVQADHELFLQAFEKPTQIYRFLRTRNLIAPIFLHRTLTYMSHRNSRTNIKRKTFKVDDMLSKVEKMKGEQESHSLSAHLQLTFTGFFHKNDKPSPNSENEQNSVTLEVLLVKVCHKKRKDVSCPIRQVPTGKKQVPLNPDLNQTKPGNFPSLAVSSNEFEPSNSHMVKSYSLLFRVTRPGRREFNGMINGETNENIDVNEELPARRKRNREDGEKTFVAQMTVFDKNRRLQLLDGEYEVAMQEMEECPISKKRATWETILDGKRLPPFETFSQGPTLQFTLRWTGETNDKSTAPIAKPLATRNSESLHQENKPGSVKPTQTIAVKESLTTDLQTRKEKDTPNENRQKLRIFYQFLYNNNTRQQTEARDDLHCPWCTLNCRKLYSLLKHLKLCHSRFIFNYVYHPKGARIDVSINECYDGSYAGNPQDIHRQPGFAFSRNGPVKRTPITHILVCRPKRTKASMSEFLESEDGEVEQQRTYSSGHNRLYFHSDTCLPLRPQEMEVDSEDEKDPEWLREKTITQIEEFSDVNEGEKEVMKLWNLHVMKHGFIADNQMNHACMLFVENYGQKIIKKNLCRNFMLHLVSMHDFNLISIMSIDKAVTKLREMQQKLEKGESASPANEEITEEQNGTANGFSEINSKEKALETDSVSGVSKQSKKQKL
T1 sequence (Q09028 whole entry partner): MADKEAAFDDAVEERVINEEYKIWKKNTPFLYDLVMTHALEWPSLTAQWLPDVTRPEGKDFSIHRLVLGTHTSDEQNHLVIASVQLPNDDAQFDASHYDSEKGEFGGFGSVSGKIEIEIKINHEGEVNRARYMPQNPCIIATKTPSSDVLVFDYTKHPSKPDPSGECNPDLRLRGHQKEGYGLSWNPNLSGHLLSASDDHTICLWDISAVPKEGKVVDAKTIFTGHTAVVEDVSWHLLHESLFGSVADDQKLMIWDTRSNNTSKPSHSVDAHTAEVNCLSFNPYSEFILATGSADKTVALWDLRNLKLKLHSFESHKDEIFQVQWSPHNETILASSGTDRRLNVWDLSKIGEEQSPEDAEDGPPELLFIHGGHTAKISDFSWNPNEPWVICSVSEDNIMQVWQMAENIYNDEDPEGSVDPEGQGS
T1 sequence (Q6ZN18 whole entry partner): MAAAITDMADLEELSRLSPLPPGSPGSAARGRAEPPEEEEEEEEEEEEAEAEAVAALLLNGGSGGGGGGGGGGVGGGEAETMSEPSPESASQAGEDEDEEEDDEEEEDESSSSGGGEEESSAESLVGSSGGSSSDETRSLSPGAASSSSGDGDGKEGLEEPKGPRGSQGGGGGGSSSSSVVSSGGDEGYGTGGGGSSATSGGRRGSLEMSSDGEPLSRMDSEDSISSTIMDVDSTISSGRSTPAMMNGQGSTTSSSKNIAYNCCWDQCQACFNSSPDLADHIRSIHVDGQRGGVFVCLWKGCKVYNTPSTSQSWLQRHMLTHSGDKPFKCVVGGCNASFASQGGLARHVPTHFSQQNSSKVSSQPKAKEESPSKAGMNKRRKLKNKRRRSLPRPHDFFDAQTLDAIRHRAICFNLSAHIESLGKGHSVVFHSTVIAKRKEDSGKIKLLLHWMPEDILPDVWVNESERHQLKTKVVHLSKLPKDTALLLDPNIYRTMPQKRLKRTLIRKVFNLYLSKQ
T2 sequence (P11712 whole entry): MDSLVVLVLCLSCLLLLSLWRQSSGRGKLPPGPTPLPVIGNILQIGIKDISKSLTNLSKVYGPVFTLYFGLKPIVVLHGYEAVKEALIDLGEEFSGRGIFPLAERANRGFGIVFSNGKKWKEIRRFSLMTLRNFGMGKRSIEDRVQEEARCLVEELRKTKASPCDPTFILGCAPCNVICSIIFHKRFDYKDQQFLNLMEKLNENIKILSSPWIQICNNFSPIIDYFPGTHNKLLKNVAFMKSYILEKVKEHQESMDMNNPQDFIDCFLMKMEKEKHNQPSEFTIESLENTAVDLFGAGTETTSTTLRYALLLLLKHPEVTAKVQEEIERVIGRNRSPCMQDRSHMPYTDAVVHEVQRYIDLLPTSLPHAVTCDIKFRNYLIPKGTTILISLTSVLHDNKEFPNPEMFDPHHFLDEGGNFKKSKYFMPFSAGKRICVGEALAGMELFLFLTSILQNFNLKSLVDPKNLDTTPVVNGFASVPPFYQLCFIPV

Regarding `O=C1/C(=C/c2cccc(Br)c2)CN(Cc2ccccc2)C/C1=C\c1cccc(Br)c1` [MC2884], the inhibition at 5 µM at EZH2 (5 μM) is about 40%. This compound also showed an inhibition at 25 µM on EZH2 (25 μM) of about 80%. Besides, the results for the IC50 on p300 and on CYP2C9 were 456 nM and over 25000 nM, respectively. The “cytotoxic effect on MePR2B” value in the data set with MePR2B is reported as “insensitive”. In addition, the “human CD45+ cells in the bone marrow reduced to” value with U937 cells is 24%.

For the origin of these results see article PMC5986654, “Combined HAT/EZH2 modulation leads to cancer-selective cell death” (Oncotarget, 2018).
